What follows are molecules tested against Human MGAT-2 (Homo sapiens (Human), UniProt Q3SYC2) (assay: MGAT LCMS Assay). Conditions: recombinant MGAT-2 membranes expressed in Sf9 cells; 100 μM 2-oleoylglycerol, 15 μM oleoyl-Coenzyme A; LC/MS of diolein; read-out: h-MGAT LCMS IC50.
Human MGAT-2, sequence (Q3SYC2 whole entry): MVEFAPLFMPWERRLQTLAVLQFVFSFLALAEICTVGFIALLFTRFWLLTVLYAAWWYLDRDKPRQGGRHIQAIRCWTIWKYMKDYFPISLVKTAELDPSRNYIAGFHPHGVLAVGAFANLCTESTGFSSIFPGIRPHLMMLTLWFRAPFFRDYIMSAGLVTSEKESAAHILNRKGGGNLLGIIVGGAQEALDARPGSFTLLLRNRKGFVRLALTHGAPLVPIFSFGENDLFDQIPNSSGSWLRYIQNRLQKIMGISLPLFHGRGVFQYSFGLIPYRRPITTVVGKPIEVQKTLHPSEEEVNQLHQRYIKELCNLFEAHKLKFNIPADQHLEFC
Type: biochemical
Protocol: Assay plates were run through a fully automated robotics system and shaken for 5 seconds every minute for a total 10 minutes. The reactions were then quenched with 120 μL of ice cold methanol containing 1 μg/mL 1,2-distearoyl-rac-glycerol as the internal standard. Plates were shaken for 2 minutes and spun down to remove protein precipitation. After the spin, samples were transferred to LC/MS compatible PCR plates. For LC/MS analysis, a ThermoFisher Surveyor pump, utilizing a Waters Symmetry C8, 50×2.1 mm column, was used for the chromatography of enzyme products. The buffer system consists of 0.1% formic acid in water with a mobile phase consisting 0.1% formic acid in methanol. The shallow gradient is 90-100% mobile phase in 0.2 min with a total run time of 2.3 min. The first 0.5 minutes of each injection was diverted to waste to eliminate the presence of Phosphate buffer in the enzymatic reaction. The column was run at 0.6 mL/min and a temperature of 65° C. Mass spectrometry analysis of the samples was performed on a ThermoFisher Quantum Triple quad utilizing APCI (+) as the mode of ionization. […] The ratio of Diolein to internal standard (Peak Area Ratio) is utilized to calculate IC50 values.
Work on `O=C1N[C@@](c2cnn(CCCCCC(F)(F)F)c2)(C(F)(F)F)CC(c2ccc3c(c2)CCCC3)=C1C(=O)NS(=O)(=O)C1CC1` [Example 58] yielded an IC50 of 13 nM. `O=C1N[C@@](c2cnn(CCCCCC(F)(F)F)c2)(C(F)(F)F)CC(c2ccc(C3CC3)s2)=C1C(=O)NS(=O)(=O)C1CC1` [Example 59] gave an IC50 of 4 nM. With `C[C@@]1(c2ccc(OCCCC(F)(F)F)cc2)CC(c2ccn(CC3CC3)n2)=C(C(=O)NS(=O)(=O)C2CC2)C(=O)N1` [Example 60] the IC50 was 34 nM. For `Cc1ccc(C2=C(C(=O)NS(N)(=O)=O)C(=O)N[C@@](c3ccc(OCCCC(F)(F)F)cc3)(C(F)(F)F)C2)cc1` [Example 61], the IC50 was 45 nM. `O=C1N[C@@](c2ccc(OCCCCC(F)(F)F)cc2)(C(F)(F)F)CC(c2ccc(C3CC3)s2)=C1C(=O)NS(=O)(=O)C1CC1` [Example 62] gave an IC50 of 8 nM. In the case of `O=C1N[C@@](c2ccc(OCCCC(F)(F)F)cc2)(C(F)(F)F)CC(c2ccc(C3CC3)s2)=C1C(=O)NS(=O)(=O)C1CC1` [Example 63], the IC50 is reported as 5 nM. Molecule `CS(=O)(=O)NC(=O)C1=C(c2ccc(C3CC3)s2)C[C@](c2ccc(OCCCC(F)(F)F)cc2)(C(F)(F)F)NC1=O` [Example 64] has an IC50 of 6 nM. In the case of `CS(=O)(=O)NC(=O)C1=C(c2ccc(C3CC3)s2)C[C@](c2ccc(OCCCC(F)(F)F)cc2F)(C(F)(F)F)NC1=O` [Example 65], the IC50 is reported as 4 nM. In the case of `CS(=O)(=O)NC(=O)C1=C(c2ccc3c(c2)CCC3)C[C@](c2ccc(OCCCC(F)(F)F)cc2F)(C(F)(F)F)NC1=O` [Example 66], the IC50 is reported as 22 nM. With `CS(=O)(=O)NC(=O)C1=C(c2ccc(C(F)F)cc2)C[C@](c2ccc(OCCCCCC(F)(F)F)cc2F)(C(F)(F)F)NC1=O` [Example 67] the IC50 was 1 nM. `CS(=O)(=O)NC(=O)C1=C(c2ccc(C3CC3)cc2)C[C@](c2ccc(OCCCCCC(F)(F)F)cc2F)(C(F)(F)F)NC1=O` [Example 68] was tested, and the IC50 was 1 nM. Work on `Cc1ccc(C2=C(C(=O)NS(=O)(=O)C3CC3)C(=O)N[C@@](c3ccc(OCCCC(F)(F)F)cc3Cl)(C(F)(F)F)C2)cc1` [Example 69] yielded an IC50 of 9 nM. `O=C1N[C@@](c2ccc(OCCCC(F)(F)F)cc2F)(C(F)(F)F)CC(c2ncc(C3CC3)s2)=C1C(=O)NS(=O)(=O)C1CC1` [Example 70] gave an IC50 of 2 nM. With `CS(=O)(=O)NC(=O)C1=C(c2ccc(C(F)F)cc2)C[C@](c2ccc(OCCCC(F)(F)F)cc2F)(C(F)(F)F)NC1=O` [Example 71] the IC50 was 12 nM. Molecule `CC(C)n1ccc(C2=C(C(=O)NS(=O)(=O)C3CC3)C(=O)N[C@@](c3ccc(OCCCCCC(F)(F)F)cc3)(C(F)(F)F)C2)c1` [Example 72] has an IC50 of 4 nM. Molecule `O=C1N[C@@](c2ccc(CCCCC(F)(F)F)cc2)(C(F)(F)F)CC(c2ccn(CC3CC3)n2)=C1C(=O)NS(=O)(=O)C1CC1` [Example 73] has an IC50 of 2 nM. For `O=C1N[C@@](c2ccc(OCCCC(F)(F)F)cc2)(C(F)(F)F)CC(c2ccn(CC3CCC3)n2)=C1C(=O)NS(=O)(=O)C1CC1` [Example 74], the IC50 was 17 nM. For `CC(C)n1ccc(C2=C(C(=O)NS(=O)(=O)C3CC3)C(=O)N[C@@](c3ccc(CCCCC(F)(F)F)cc3)(C(F)(F)F)C2)n1` [Example 75], the IC50 was 23 nM. For `O=C1N[C@@](c2ccc(CCCCC(F)(F)F)cc2)(C(F)(F)F)CC(c2ccn(C3CC3)n2)=C1C(=O)NS(=O)(=O)C1CC1` [Example 76], the IC50 was 72 nM. For `O=C1N[C@@](c2ccc(OCCCC(F)(F)F)cc2)(C(F)(F)F)CC(c2ccn(C3CCC3)n2)=C1C(=O)NS(=O)(=O)C1CC1` [Example 77], the IC50 was 29 nM. `O=C1N[C@@](c2ccc(OCCCCCC(F)(F)F)cc2)(C(F)(F)F)CC(c2ccn(C3CC3)n2)=C1C(=O)NS(=O)(=O)C1CC1` [Example 78] was tested, and the IC50 was 25 nM. `O=C1N[C@@](c2ccc(OCCCCCC(F)(F)F)cc2)(C(F)(F)F)CC(c2ccn(CC3CC3)n2)=C1C(=O)NS(=O)(=O)C1CC1` [Example 79] showed an IC50 of 3 nM. `CC(C)Cn1ccc(C2=C(C(=O)NS(=O)(=O)C3CC3)C(=O)N[C@@](c3ccc(OCCCCCC(F)(F)F)cc3)(C(F)(F)F)C2)n1` [Example 81] gave an IC50 of 43 nM. `CCc1ccc(C2=C(C(=O)NS(=O)(=O)C3CC3)C(=O)N[C@](C)(c3ccc(OCCCC(F)(F)F)cc3)C2)cc1` [Example 82] showed an IC50 of 2 nM. `CS(=O)(=O)NC(=O)C1=C(c2ccn(C3CC3)n2)C[C@](c2ccc(OCCCCCC(F)(F)F)cc2)(C(F)(F)F)NC1=O` [Example 83] showed an IC50 of 6 nM. `CC(C)(C)c1ccc(C2=C(C(=O)NS(C)(=O)=O)C(=O)N[C@](C)(c3ccc(OCCCC(F)(F)F)cc3)C2)cc1` [Example 85] showed an IC50 of 27 nM. `CS(=O)(=O)NC(=O)C1=C(c2ccn(C3CC3)n2)C[C@](c2ccc(OCCCCCC(F)(F)F)cc2F)(C(F)(F)F)NC1=O` [Example 86] showed an IC50 of 166 nM. Work on `O=C1N[C@@](c2ccc(OCCCC(F)(F)F)cc2)(C(F)(F)F)CC(c2ccn(C3CC3)n2)=C1C(=O)NS(=O)(=O)C1CC1` [Example 87] yielded an IC50 of 98 nM. Molecule `O=C1N[C@@](c2ccc(OCCCC(F)(F)F)cc2)(C(F)(F)F)CC(c2ccn(CC3CC3)n2)=C1C(=O)NS(=O)(=O)C1CC1` [Example 88] has an IC50 of 67 nM. `O=C1N[C@@](c2ccc(OCCCCCC(F)(F)F)cc2F)(C(F)(F)F)CC(c2ccn(C3CC3)n2)=C1C(=O)NS(=O)(=O)C1CC1` [Example 89] was tested, and the IC50 was 6 nM. Work on `CS(=O)(=O)NC(=O)C1=C(c2ccn(CC3CCC3)n2)C[C@](c2ccc(OCCCC(F)(F)F)cc2)(C(F)(F)F)NC1=O` [Example 90] yielded an IC50 of 8 nM. `CS(=O)(=O)NC(=O)C1=C(c2ccn(CC3CC3)n2)C[C@](c2ccc(OCCCC(F)(F)F)cc2)(C(F)(F)F)NC1=O` [Example 91] showed an IC50 of 23 nM. For `Cc1ccc(C2=C(C(=O)NS(=O)(=O)C3CC3)C(=O)N[C@@](c3cnn(CCCCCC(F)(F)F)c3)(C(F)(F)F)C2)cc1` [Example 93], the IC50 was 179 nM. Work on `O=C1N[C@@](c2cnn(CCCCCCC(F)(F)F)c2)(C(F)(F)F)CC(c2ccc3c(c2)CCCC3)=C1C(=O)NS(=O)(=O)C1CC1` [Example 94] yielded an IC50 of 4 nM. In the case of `O=C1N[C@@](c2cnn(CC/C=C/CCC(F)(F)F)c2)(C(F)(F)F)CC(c2ccc3c(c2)CCCC3)=C1C(=O)NS(=O)(=O)C1CC1` [Example 95], the IC50 is reported as 88 nM. `CCOc1ccc(C2=C(C(=O)NS(=O)(=O)C3CC3)C(=O)N[C@@](c3ccc(OCCCC(F)(F)F)cc3F)(C(F)(F)F)C2)cc1` [Example 96] showed an IC50 of 7 nM. `CCOc1ccc(C2=C(C(=O)NS(C)(=O)=O)C(=O)N[C@@](c3ccc(OCCCC(F)(F)F)cc3F)(C(F)(F)F)C2)cc1` [Example 97] gave an IC50 of 42 nM. Work on `Cc1ccc(C2=C(C(=O)NS(=O)(=O)C3CC3)C(=O)N[C@@](C3CCCCC3)(C(F)(F)F)C2)cc1` [Example 98] yielded an IC50 of 22 nM. Work on `[2H]C1([2H])C(c2ccc(OC)cc2)=C(C(=O)NS(=O)(=O)C2CC2)C(=O)N[C@@]1(c1ccc(OCCCCCC(F)(F)F)cc1F)C(F)(F)F` [Example 99] yielded an IC50 of 4 nM.

From patent publication US9365558B2 (BRISTOL-MYERS SQUIBB COMPANY, priority 2013, dated 2016)
